Where a chain is given by its changes, count along the chain named.
What follows are compounds tested against T1, R140Q IDH2 (Homo sapiens, UniProt P48735, R140Q) (assay: Absorbance assay, variant activity in the presence of equimolar 2OG (inhibition screen)). Conditions: 6.0 mM 2OG and 6.0 mM test compound, 0.03 μM R140Q IDH2, 50 μM NADPH.
T1 construct: made in house; host or cells: Sf21 insect cells (cell pellets prepared at Evotec)
T1 sequence (P48735 40-452 R140Q): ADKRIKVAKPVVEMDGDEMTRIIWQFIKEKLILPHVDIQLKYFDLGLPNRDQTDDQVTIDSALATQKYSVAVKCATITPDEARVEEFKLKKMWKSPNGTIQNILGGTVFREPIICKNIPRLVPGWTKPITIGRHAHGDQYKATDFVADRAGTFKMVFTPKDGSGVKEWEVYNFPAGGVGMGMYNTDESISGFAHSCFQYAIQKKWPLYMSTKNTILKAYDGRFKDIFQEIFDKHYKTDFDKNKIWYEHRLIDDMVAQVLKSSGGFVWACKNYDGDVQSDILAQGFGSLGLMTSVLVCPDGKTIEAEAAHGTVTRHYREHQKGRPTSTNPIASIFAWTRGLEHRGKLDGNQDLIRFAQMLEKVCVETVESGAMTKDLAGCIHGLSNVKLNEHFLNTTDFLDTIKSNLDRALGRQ
Type: biochemical
Procedure: (§1) Compounds were dispensed using a CyBio SDW-CW CyBi-Well Simultaneous Pipettor and assay started using a ThermoFisher Multidrop Combi reagent dispenser.
(§2) Reactions were performed as technical quadruplicates.

Structure (SMILES) | activity [%] (%-substrate conversion after 20 min incubation)
COc1ccc(CC(CC(=O)O)C(=O)C(=O)O)cc1 (racemic) [compound 9] | 125 ± 3
O=C(O)C(=O)CC(CCCc1ccccc1)C(=O)O (racemic) [compound 18] | 101 ± 3
O=C(O)C(=O)c1cscc1C(=O)O [compound 31] | 113 ± 4
O=C(O)C(=O)c1cccc(C(=O)O)c1 [compound 29] | 95 ± 7
O=C(O)CC(Cc1ccc(F)cc1)C(=O)C(=O)O (racemic) [compound 8] | 516 ± 40
O=C(O)C(=O)C1CC=CCC1C(=O)O (mixture of isomers) [compound 27] | 97 ± 4
CC(C)(C)CCC(CC(=O)C(=O)O)C(=O)O (racemic) [compound 17] | 119 ± 5
CCCCC(CC(=O)C(=O)O)C(=O)O (racemic) [compound 16] | 131 ± 9
CC1(C)C(C(=O)O)C1C(=O)C(=O)O (mixture of isomers) [compound 22] | 112 ± 4
CCCC(CC(=O)C(=O)O)C(=O)O (racemic) [compound 15] | 116 ± 4
O=C(O)C(=O)CC(Cc1ccc2ccccc2c1)C(=O)O (racemic) [compound 20] | 73 ± 4
CC(C)(C)CCC(CC(=O)O)C(=O)C(=O)O (racemic) [compound 5] | 146 ± 4
O=C(O)C(=O)C1C2C=CC(C2)C1C(=O)O (racemic) [compound 28] | 114 ± 4
O=C(O)C(=O)c1ccc(C(=O)O)cc1 [compound 30] | 94 ± 3

The compounds below were run against T2, R172K IDH2 (Homo sapiens, UniProt P48735, R172K) in the same assay as above. Conditions: 1.0 mM 2OG and 1.0 mM test compound, 0.03 μM R172K IDH2, 50 μM NADPH.
T2 construct: made in house; host or cells: Sf21 insect cells (cell pellets prepared at Evotec)
T2 sequence (P48735 40-452 R172K): T1 sequence (P48735 40-452 R140Q) with Q101R, R133K
Type: biochemical
Procedure: as §1, §2

Structure (SMILES) | activity [%] (%-substrate conversion after 20 min incubation)
COc1ccc(CC(CC(=O)O)C(=O)C(=O)O)cc1 (racemic) [compound 9] | 111 ± 3
O=C(O)C(=O)CC(CCCc1ccccc1)C(=O)O (racemic) [compound 18] | 74 ± 12
O=C(O)C(=O)c1cscc1C(=O)O [compound 31] | 99 ± 3
O=C(O)C(=O)c1cccc(C(=O)O)c1 [compound 29] | 93 ± 7
O=C(O)CC(Cc1ccc(F)cc1)C(=O)C(=O)O (racemic) [compound 8] | 106 ± 5
O=C(O)C(=O)C1CC=CCC1C(=O)O (mixture of isomers) [compound 27] | 104 ± 8
CC(C)(C)CCC(CC(=O)C(=O)O)C(=O)O (racemic) [compound 17] | 93 ± 3
CCCCC(CC(=O)C(=O)O)C(=O)O (racemic) [compound 16] | 100 ± 5
CC1(C)C(C(=O)O)C1C(=O)C(=O)O (mixture of isomers) [compound 22] | 110 ± 10
CCCC(CC(=O)C(=O)O)C(=O)O (racemic) [compound 15] | 97 ± 5
O=C(O)C(=O)CC(Cc1ccc2ccccc2c1)C(=O)O (racemic) [compound 20] | 51 ± 1
CC(C)(C)CCC(CC(=O)O)C(=O)C(=O)O (racemic) [compound 5] | 98 ± 3
O=C(O)C(=O)c1ccc(C(=O)O)cc1 [compound 30] | 110 ± 8

Each compound was assayed against T3, WT IDH1 (Homo sapiens, UniProt O75874) (assay: Absorbance assay, WT activity in the presence of equimolar DL-isocitrate (inhibition)). Conditions: […] isocitrate and […] test compound, 75 μM NADP+, 2.0 nM WT IDH1.
T3 construct: made in house; host or cells: Escherichia coli BL21(DE3) pLyS
Type: biochemical
Procedure: as §1, §2

T3 sequence (O75874 whole entry): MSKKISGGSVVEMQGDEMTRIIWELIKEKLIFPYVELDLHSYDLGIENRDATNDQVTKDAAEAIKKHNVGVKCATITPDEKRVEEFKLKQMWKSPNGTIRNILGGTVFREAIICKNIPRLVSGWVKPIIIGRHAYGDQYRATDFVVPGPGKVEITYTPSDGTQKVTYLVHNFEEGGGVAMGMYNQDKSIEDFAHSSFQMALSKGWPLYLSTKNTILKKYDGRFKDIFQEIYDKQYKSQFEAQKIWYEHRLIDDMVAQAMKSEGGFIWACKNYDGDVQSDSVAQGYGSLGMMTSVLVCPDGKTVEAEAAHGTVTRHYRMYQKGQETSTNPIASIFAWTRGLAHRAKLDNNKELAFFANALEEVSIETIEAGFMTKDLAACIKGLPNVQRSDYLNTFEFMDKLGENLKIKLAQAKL

Structure (SMILES) | activity [%] (%-substrate conversion after 20 min incubation)
COc1ccc(CC(CC(=O)O)C(=O)C(=O)O)cc1 (racemic) [compound 9] | 93±2
O=C(O)C(=O)CC(CCCc1ccccc1)C(=O)O (racemic) [compound 18] | 101±3
O=C(O)C(=O)c1cscc1C(=O)O [compound 31] | 103±1
O=C(O)C(=O)c1cccc(C(=O)O)c1 [compound 29] | 94±2
O=C(O)CC(Cc1ccc(F)cc1)C(=O)C(=O)O (racemic) [compound 8] | 96±3
O=C(O)C(=O)C1CC=CCC1C(=O)O (mixture of isomers) [compound 27] | 93±1
CC(C)(C)CCC(CC(=O)C(=O)O)C(=O)O (racemic) [compound 17] | 95±7
CCCCC(CC(=O)C(=O)O)C(=O)O (racemic) [compound 16] | 102±3
CC1(C)C(C(=O)O)C1C(=O)C(=O)O (mixture of isomers) [compound 22] | 96±1
O=C(O)C(=O)C1CCC(C(=O)O)CC1 (mixture of isomers) [compound 25] | 104±6
CCCC(CC(=O)C(=O)O)C(=O)O (racemic) [compound 15] | 95±3
O=C(O)C(=O)CC(Cc1ccc2ccccc2c1)C(=O)O (racemic) [compound 20] | 97±3
CC(C)(C)CCC(CC(=O)O)C(=O)C(=O)O (racemic) [compound 5] | 95±6
O=C(O)C(=O)c1ccc(C(=O)O)cc1 [compound 30] | 101±2

Each compound was assayed against T4, WT IDH2 (Homo sapiens, UniProt P48735) in the same assay as above. Conditions: […] isocitrate and […] test compound, 75 μM NADP+, 2.0 nM WT IDH2.
T4 construct: made in house; host or cells: Sf21 insect cells (cell pellets prepared at Evotec)
T4 sequence (P48735 40-452): T1 sequence (P48735 40-452 R140Q) with Q101R
Type: biochemical
Procedure: as §1, §2

Structure (SMILES) | activity [%] (%-substrate conversion after 20 min incubation)
COc1ccc(CC(CC(=O)O)C(=O)C(=O)O)cc1 (racemic) [compound 9] | 98±3
O=C(O)C(=O)CC(CCCc1ccccc1)C(=O)O (racemic) [compound 18] | 100±1
O=C(O)C(=O)c1cscc1C(=O)O [compound 31] | 101±2
O=C(O)C(=O)c1cccc(C(=O)O)c1 [compound 29] | 99±1
O=C(O)CC(Cc1ccc(F)cc1)C(=O)C(=O)O (racemic) [compound 8] | 100±1
O=C(O)C(=O)C1CC=CCC1C(=O)O (mixture of isomers) [compound 27] | 92±4
CC(C)(C)CCC(CC(=O)C(=O)O)C(=O)O (racemic) [compound 17] | 100±2
CCCCC(CC(=O)C(=O)O)C(=O)O (racemic) [compound 16] | 100±2
CC1(C)C(C(=O)O)C1C(=O)C(=O)O (mixture of isomers) [compound 22] | 96±1
O=C(O)C(=O)C1CCC(C(=O)O)CC1 (mixture of isomers) [compound 25] | 92±9
CCCC(CC(=O)C(=O)O)C(=O)O (racemic) [compound 15] | 98±3
O=C(O)C(=O)CC(Cc1ccc2ccccc2c1)C(=O)O (racemic) [compound 20] | 97±4
CC(C)(C)CCC(CC(=O)O)C(=O)C(=O)O (racemic) [compound 5] | 98±1
O=C(O)C(=O)C1C2C=CC(C2)C1C(=O)O (racemic) [compound 28] | 99±1
O=C(O)C(=O)c1ccc(C(=O)O)cc1 [compound 30] | 100±4

The compounds below were run against T3, WT IDH1 (assay: Absorbance assay, substrate activity in the absence of DL-isocitrate). Conditions: no DL-isocitrate; […] test compound, 75 μM NADP+, 2.0 nM WT IDH1; compared to DL-isocitrate.
Type: biochemical
Procedure: as §1, §2

Structure (SMILES) | activity [%] (%-substrate conversion after 20 min incubation)
COc1ccc(CC(CC(=O)O)C(=O)C(=O)O)cc1 (racemic) [compound 9] | < 10
O=C(O)C(=O)CC(CCCc1ccccc1)C(=O)O (racemic) [compound 18] | < 10
O=C(O)CC(Cc1ccc(F)cc1)C(=O)C(=O)O (racemic) [compound 8] | < 10
CC(C)(C)CCC(CC(=O)C(=O)O)C(=O)O (racemic) [compound 17] | < 10
CCCCC(CC(=O)C(=O)O)C(=O)O (racemic) [compound 16] | < 10
CCCC(CC(=O)C(=O)O)C(=O)O (racemic) [compound 15] | < 10
O=C(O)C(=O)CC(Cc1ccc2ccccc2c1)C(=O)O (racemic) [compound 20] | < 10
CC(C)(C)CCC(CC(=O)O)C(=O)C(=O)O (racemic) [compound 5] | < 10

Each compound was assayed against T4, WT IDH2 in the same assay as above. Conditions: no DL-isocitrate; […] test compound, 75 μM NADP+, 2.0 nM WT IDH2; compared to DL-isocitrate.
Type: biochemical
Procedure: as §1, §2

Structure (SMILES) | activity [%] (%-substrate conversion after 20 min incubation)
COc1ccc(CC(CC(=O)O)C(=O)C(=O)O)cc1 (racemic) [compound 9] | < 10
O=C(O)C(=O)CC(CCCc1ccccc1)C(=O)O (racemic) [compound 18] | < 10
O=C(O)CC(Cc1ccc(F)cc1)C(=O)C(=O)O (racemic) [compound 8] | < 10
CC(C)(C)CCC(CC(=O)C(=O)O)C(=O)O (racemic) [compound 17] | < 10
CCCCC(CC(=O)C(=O)O)C(=O)O (racemic) [compound 16] | < 10
CCCC(CC(=O)C(=O)O)C(=O)O (racemic) [compound 15] | < 10
O=C(O)C(=O)CC(Cc1ccc2ccccc2c1)C(=O)O (racemic) [compound 20] | < 10
CC(C)(C)CCC(CC(=O)O)C(=O)C(=O)O (racemic) [compound 5] | < 10

Each compound was assayed against R132H IDH1 (Homo sapiens, UniProt O75874, R132H) (assay: Absorbance assay, variant activity in the presence of equimolar 2OG (inhibition screen)). Conditions: […] 2OG and […] test compound, 0.03 μM R132H IDH1, 50 μM NADPH.
Type: biochemical
Set-up: made in house; host or cells: Escherichia coli BL21(DE3) pLyS
Procedure: as §1, §2

Sequence of R132H IDH1 (O75874 whole entry R132H): as the sequence (O75874 whole entry) above, with R132H counted along it

Structure (SMILES) | activity [%] (%-substrate conversion after 20 min incubation)
COc1ccc(CC(CC(=O)O)C(=O)C(=O)O)cc1 (racemic) [compound 9] | 200 ± 15
O=C(O)C(=O)CC(CCCc1ccccc1)C(=O)O (racemic) [compound 18] | 82 ± 3
O=C(O)C(=O)c1cscc1C(=O)O [compound 31] | 102 ± 5
O=C(O)C(=O)c1cccc(C(=O)O)c1 [compound 29] | 88 ± 2
O=C(O)CC(Cc1ccc(F)cc1)C(=O)C(=O)O (racemic) [compound 8] | 186 ± 6
O=C(O)C(=O)C1CC=CCC1C(=O)O (mixture of isomers) [compound 27] | 94 ± 11
CC(C)(C)CCC(CC(=O)C(=O)O)C(=O)O (racemic) [compound 17] | 93 ± 3
CCCCC(CC(=O)C(=O)O)C(=O)O (racemic) [compound 16] | 113 ± 4
CC1(C)C(C(=O)O)C1C(=O)C(=O)O (mixture of isomers) [compound 22] | 92 ± 5
CCCC(CC(=O)C(=O)O)C(=O)O (racemic) [compound 15] | 101 ± 7
O=C(O)C(=O)CC(Cc1ccc2ccccc2c1)C(=O)O (racemic) [compound 20] | 31 ± 2
CC(C)(C)CCC(CC(=O)O)C(=O)C(=O)O (racemic) [compound 5] | 142 ± 14
O=C(O)C(=O)C1C2C=CC(C2)C1C(=O)O (racemic) [compound 28] | 116 ± 4
O=C(O)C(=O)c1ccc(C(=O)O)cc1 [compound 30] | 103 ± 2

From paper PMC9939733 (The Journal of Biological Chemistry, 2023)
